“And” between values parts separate entries of the source, which are not always exact repeats. Identical values can stand only once. Inconclusive results and toxic doses are left out.
Tested on: P388 leukemia ip, CD2F1 mice, survival T/C
Assay: NCI In Vivo Anticancer Drug Screen. Data for tumor model P388 Leukemia (intraperitoneal) in CD2F1 (CDF1) mice
Settings: endpoint: median survival time, higher = longer survival
Outline: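 Mice carrying the transplanted tumor received test compound or vehicle. Survival was recorded in each group, and the value is the treated-group measurement divided by that of the vehicle-treated control group.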

[1] = dose: 60.0 mg/kg/injection, schedule: Q01DX005 (ip), vehicle: saline with Tween-80
[2] = dose: 120.0 mg/kg/injection, schedule: Q01DX005 (ip), vehicle: saline with Tween-80
[3] = dose: 240.0 mg/kg/injection, schedule: Q01DX005 (ip), vehicle: saline with Tween-80
[4] = dose: 50.0 mg/kg/injection, schedule: Q01DX009 (ip), vehicle: Klucel (hydroxypropylcellulose) (HPC)
[5] = dose: 25.0 mg/kg/injection, schedule: Q01DX009 (ip), vehicle: saline with Tween-80
[6] = dose: 100.0 mg/kg/injection, schedule: Q01DX009 (ip), vehicle: saline with Tween-80
[7] = dose: 200.0 mg/kg/injection, schedule: Q01DX009 (ip), vehicle: saline with Tween-80
[8] = dose: 50.0 mg/kg/injection, schedule: Q01DX005 (ip), vehicle: Klucel (hydroxypropylcellulose) (HPC)
[9] = dose: 100.0 mg/kg/injection, schedule: Q01DX005 (ip), vehicle: Klucel (hydroxypropylcellulose) (HPC)
[10] = dose: 200.0 mg/kg/injection, schedule: Q01DX005 (ip), vehicle: Klucel (hydroxypropylcellulose) (HPC)
[11] = dose: 50.0 mg/kg/injection, schedule: Q01DX009 (ip), vehicle: saline
[12] = dose: 100.0 mg/kg/injection, schedule: Q01DX009 (ip), vehicle: saline
[13] = dose: 200.0 mg/kg/injection, schedule: Q01DX009 (ip), vehicle: saline
[14] = dose: 50.0 mg/kg/injection, schedule: Q01DX005 (ip), vehicle: saline with Tween-80
[15] = dose: 100.0 mg/kg/injection, schedule: Q01DX005 (ip), vehicle: saline with Tween-80
[16] = dose: 200.0 mg/kg/injection, schedule: Q01DX005 (ip), vehicle: saline with Tween-80
[17] = dose: 6.25 mg/kg/injection, schedule: Q01DX009 (ip), vehicle: saline
[18] = dose: 50.0 mg/kg/injection, schedule: Q01DX009 (ip), vehicle: saline with Tween-80
[19] = dose: 12.5 mg/kg/injection, schedule: Q01DX005 (ip), vehicle: Klucel (hydroxypropylcellulose) (HPC)

O=c1[nH]nc(-c2ccccc2)c2c1[nH]c1ccccc12
T/C [1]: 93 % of control | T/C [2]: 96 % of control | T/C [3]: 86 % of control

Cc1ccc(S(=O)(=O)NC(C)(COS(=O)(=O)c2ccc(C)cc2)COS(=O)(=O)c2ccc(C)cc2)cc1
T/C [4]: 95 % of control | T/C (dose: 100.0 mg/kg/injection, schedule: Q01DX009 (ip), vehicle: Klucel (hydroxypropylcellulose) (HPC)): 96 % of control | T/C (dose: 200.0 mg/kg/injection, schedule: Q01DX009 (ip), vehicle: Klucel (hydroxypropylcellulose) (HPC)): 96 % of control

CCCN(CCC)CC(O)c1cc2cc(C(F)(F)F)cc(C(F)(F)F)c2c2cc(Cl)c(Cl)cc12 (configuration not stated)
T/C (dose: 6.25 mg/kg/injection, schedule: Q01DX009 (ip), vehicle: saline with Tween-80): 102 % of control | T/C (dose: 12.5 mg/kg/injection, schedule: Q01DX009 (ip), vehicle: saline with Tween-80): 101 % of control | T/C [5]: 94 % of control | T/C [6]: 91 % of control | T/C [7]: 91 % of control

O=C1OC2=C(CCc3nc(-c4ccccc4)sc32)C(N(c2ccccc2)c2ccccc2)C1(Cl)Cl (configuration not stated)
T/C [8]: 96 % of control | T/C [9]: 90 % of control | T/C [10]: 86 % of control

CCCCCCCCCCCC#CC(=O)OC
T/C [11]: 105 % of control | T/C [12]: 103 % of control | T/C [13]: 103 % of control

C(CCSCCCCSCCCCCC1=NCCN1)CCC1=NCCN1
T/C [8]: 94 % of control | T/C [9]: 95 % of control | T/C [10]: 99 % of control

CCCCN(CCCC)CC(N=O)c1cc(-c2ccc(Cl)c(Cl)c2)nc2c(Cl)cc(Cl)cc12 (configuration not stated)
T/C [14]: 108 % of control | T/C [15]: 111 % of control | T/C [16]: 107 % of control

CCCCOCc1c(-c2ccccc2)sc2ccccc2c1=O
T/C [14]: 97 % of control | T/C [15]: 102 % of control | T/C [16]: 100 % of control

COc1cc2c(c(OC)c1OC)-c1ccc(OC)c(=O)cc1C(NC(=O)COc1ccccc1)CC2 (configuration not stated)
T/C (dose: 0.16 mg/kg/injection, schedule: Q01DX009 (ip), vehicle: Klucel (hydroxypropylcellulose) (HPC)): 120 % of control | T/C (dose: 1.25 mg/kg/injection, schedule: Q01DX009 (ip), vehicle: Klucel (hydroxypropylcellulose) (HPC)): 164 % of control and 171 % of control | T/C (dose: 2.5 mg/kg/injection, schedule: Q01DX009 (ip), vehicle: Klucel (hydroxypropylcellulose) (HPC)): 104 % of control and 207 % of control

O=S1(=O)CCOc2ccccc2N1
T/C (dose: 100.0 mg/kg/injection, schedule: Q04DX003 (ip), vehicle: Klucel (hydroxypropylcellulose) (HPC)): 96 % of control | T/C (dose: 200.0 mg/kg/injection, schedule: Q04DX003 (ip), vehicle: Klucel (hydroxypropylcellulose) (HPC)): 96 % of control | T/C (dose: 400.0 mg/kg/injection, schedule: Q04DX003 (ip), vehicle: Klucel (hydroxypropylcellulose) (HPC)): 90 % of control

Cc1ccc(-n2nc(C)cc2C)nn1
T/C [11]: 99 % of control | T/C [12]: 101 % of control

O=C(O)C(Cc1cccc(F)c1)NC(=O)C(F)(F)F (configuration not stated)
T/C [17]: 98 % of control

NS(=O)(=O)/C(Br)=C/c1ccccc1
T/C [18]: 90 % of control | T/C [6]: 118 % of control | T/C [7]: 98 % of control

CSC(SC)c1cc(C)no1
T/C [1]: 107 % of control | T/C [2]: 101 % of control | T/C [3]: 103 % of control

CCN(CC)c1cc(C(=O)O)cc(N(CC)CC)n1
T/C (dose: 6.25 mg/kg/injection, schedule: Q01DX005 (ip), vehicle: sodium bicarbonate): 104 % of control | T/C [19]: 98 % of control and 100 % of control | T/C (dose: 12.5 mg/kg/injection, schedule: Q01DX005 (ip), vehicle: sodium bicarbonate): 114 % of control | T/C (dose: 25.0 mg/kg/injection, schedule: Q01DX005 (ip), vehicle: Klucel (hydroxypropylcellulose) (HPC)): 98 % of control and 106 % of control | T/C (dose: 25.0 mg/kg/injection, schedule: Q01DX005 (ip), vehicle: sodium bicarbonate): 120 % of control | T/C [8]: 100 % of control and 120 % of control and 123 % of control | T/C (dose: 50.0 mg/kg/injection, schedule: Q01DX005 (ip), vehicle: sodium bicarbonate): 121 % of control

CC(=O)C(C)P(=O)(O)O (configuration not stated)
T/C [11]: 99 % of control | T/C [12]: 101 % of control | T/C [13]: 106 % of control

CCCN(C)N=Nc1ccccc1C(=O)O
T/C (dose: 3.12 mg/kg/injection, schedule: Q01DX009 (ip), vehicle: Klucel (hydroxypropylcellulose) (HPC)): 111 % of control | T/C (dose: 6.25 mg/kg/injection, schedule: Q01DX009 (ip), vehicle: Klucel (hydroxypropylcellulose) (HPC)): 91 % of control | T/C (dose: 12.5 mg/kg/injection, schedule: Q01DX009 (ip), vehicle: Klucel (hydroxypropylcellulose) (HPC)): 110 % of control | T/C (dose: 25.0 mg/kg/injection, schedule: Q01DX009 (ip), vehicle: Klucel (hydroxypropylcellulose) (HPC)): 110 % of control | T/C [4]: 105 % of control

C(=P(c1ccccc1)(c1ccccc1)c1ccccc1)[P+](c1ccccc1)(c1ccccc1)c1ccccc1
T/C (dose: 3.12 mg/kg/injection, schedule: Q01DX009 (ip), vehicle: saline): 111 % of control | T/C (dose: 3.12 mg/kg/injection, schedule: Q01DX009 (ip), vehicle: suspension in saline): 111 % of control | T/C [17]: 104 % of control | T/C (dose: 6.25 mg/kg/injection, schedule: Q01DX009 (ip), vehicle: suspension in saline): 112 % of control | T/C (dose: 12.5 mg/kg/injection, schedule: Q01DX009 (ip), vehicle: suspension in saline): 119 % of control

CN(C)CC[CH2][Sn]([CH2]CCN(C)C)([CH2]CCN(C)C)[CH2]CCN(C)C
T/C [18]: 105 % of control | T/C [6]: 97 % of control

C[CH2][Sn]([Cl])([Cl])[CH2]C
T/C (dose: 1.56 mg/kg/injection, schedule: Q04DX003 (ip), vehicle: saline): 104 % of control | T/C (dose: 3.12 mg/kg/injection, schedule: Q04DX003 (ip), vehicle: saline): 111 % of control and 113 % of control and 116 % of control | T/C (dose: 6.25 mg/kg/injection, schedule: Q04DX003 (ip), vehicle: saline): 118 % of control [middle of 5 runs] | T/C (dose: 12.5 mg/kg/injection, schedule: Q04DX003 (ip), vehicle: saline): 121 % of control and 101 % of control and 115 % of control | T/C (dose: 25.0 mg/kg/injection, schedule: Q04DX003 (ip), vehicle: saline): 153 % of control

O=C(O)/C=C\C(=O)ONCc1ccccc1
T/C [14]: 106 % of control | T/C [15]: 106 % of control | T/C [16]: 106 % of control

C=C(Cl)C(=NC(C)C)Nc1ccccc1C
T/C (dose: 0.79 mg/kg/injection, schedule: Q01DX005 (ip), vehicle: Klucel (hydroxypropylcellulose) (HPC)): 112 % of control | T/C (dose: 1.56 mg/kg/injection, schedule: Q01DX005 (ip), vehicle: Klucel (hydroxypropylcellulose) (HPC)): 100 % of control and 107 % of control | T/C (dose: 3.12 mg/kg/injection, schedule: Q01DX005 (ip), vehicle: Klucel (hydroxypropylcellulose) (HPC)): 107 % of control and 110 % of control and 115 % of control | T/C (dose: 6.25 mg/kg/injection, schedule: Q01DX005 (ip), vehicle: Klucel (hydroxypropylcellulose) (HPC)): 118 % of control and 86 % of control | T/C [19]: 102 % of control and 114 % of control

CN1CCC(CN2c3ccccc3Sc3ccccc32)CC1
T/C [5]: 95 % of control | T/C (dose: 25.0 mg/kg/injection, schedule: Q04DX003 (ip), vehicle: saline with Tween-80): 100 % of control | T/C [18]: 100 % of control | T/C (dose: 50.0 mg/kg/injection, schedule: Q04DX003 (ip), vehicle: saline with Tween-80): 109 % of control | T/C [6]: 95 % of control | T/C (dose: 100.0 mg/kg/injection, schedule: Q04DX003 (ip), vehicle: saline with Tween-80): 109 % of control

C=CCC(NC(=O)c1ccccc1)C(=O)O (configuration not stated)
T/C [18]: 100 % of control | T/C [6]: 98 % of control | T/C [7]: 95 % of control

C=NC1C=CCC=C1
T/C (dose: 100.0 mg/kg/injection, schedule: Q04DX002 (ip), vehicle: saline with Tween-80): 112 % of control | T/C (dose: 200.0 mg/kg/injection, schedule: Q04DX002 (ip), vehicle: saline with Tween-80): 91 % of control

N#CCc1nc2ccccc2nc1Cl
T/C (dose: 50.0 mg/kg/injection, schedule: Q01DX009 (ip), vehicle: distilled water + Tween-80 + alcohol): 100 % of control | T/C (dose: 100.0 mg/kg/injection, schedule: Q01DX009 (ip), vehicle: distilled water + Tween-80 + alcohol): 94 % of control

NOCc1csc(N)n1
T/C (dose: 75.0 mg/kg/injection, schedule: Q01DX009 (ip), vehicle: saline): 91 % of control | T/C (dose: 150.0 mg/kg/injection, schedule: Q01DX009 (ip), vehicle: saline): 91 % of control | T/C (dose: 300.0 mg/kg/injection, schedule: Q01DX009 (ip), vehicle: saline): 91 % of control

Source: PubChem BioAssay AID330 (DTP/NCI, 2004)
